Assay results reported in PubChem BioAssay AID1259407 (Chemical Carcinogenesis Research Information System (CCRIS), 2018).
The source made the active and inactive calls. No rule for the calls is given here.

Test system: CCRIS mutagenicity, Ames/micronucleus/aberration tests
Test: CCRIS mutagenicity studies
[1] = Test System: AMES SALMONELLA TYPHIMURIUM, Strain/Indicator: TA97A, Metabolic Activation: NONE, Method: STANDARD PLATE
[2] = Test System: AMES SALMONELLA TYPHIMURIUM, Strain/Indicator: TA97A, Metabolic Activation: RAT, LIVER, S-9, AROCLOR 1254, Method: STANDARD PLATE
[3] = Test System: AMES SALMONELLA TYPHIMURIUM, Strain/Indicator: TA98, Metabolic Activation: NONE, Method: STANDARD PLATE
[4] = Test System: AMES SALMONELLA TYPHIMURIUM, Strain/Indicator: TA98, Metabolic Activation: RAT, LIVER, S-9, AROCLOR 1254, Method: STANDARD PLATE
[5] = Test System: AMES SALMONELLA TYPHIMURIUM, Strain/Indicator: TA100, Metabolic Activation: NONE, Method: PREINCUBATION
[6] = Test System: AMES SALMONELLA TYPHIMURIUM, Strain/Indicator: TA100, Metabolic Activation: NONE, Method: STANDARD PLATE
[7] = Test System: AMES SALMONELLA TYPHIMURIUM, Strain/Indicator: TA100, Metabolic Activation: RAT, LIVER, S-9, AROCLOR 1254, Method: STANDARD PLATE
[8] = Test System: AMES SALMONELLA TYPHIMURIUM, Strain/Indicator: TA102, Metabolic Activation: NONE, Method: STANDARD PLATE
[9] = Test System: AMES SALMONELLA TYPHIMURIUM, Strain/Indicator: TA102, Metabolic Activation: RAT, LIVER, S-9, AROCLOR 1254, Method: STANDARD PLATE

Compound: CCOCCO
- mutagenic call (End Point: IN VITRO CHROMOSOMAL ABERRATIONS, Test System: CHINESE HAMSTER OVARY CELLS, Metabolic Activation: RAT, LIVER, S-9, AROCLOR 1254): inactive; negative
- mutagenic call [1]: inactive; negative
- mutagenic call [2]: inactive; negative
- mutagenic call (Test System: AMES SALMONELLA TYPHIMURIUM, Strain/Indicator: TA98, Metabolic Activation: HAMSTER, LIVER, S-9, AROCLOR 1254 (10%), Method: PREINCUBATION): inactive; negative
- mutagenic call (Test System: AMES SALMONELLA TYPHIMURIUM, Strain/Indicator: TA98, Metabolic Activation: NONE, Method: PREINCUBATION): inactive; negative
- mutagenic call [3]: inactive; negative
- mutagenic call (Test System: AMES SALMONELLA TYPHIMURIUM, Strain/Indicator: TA98, Metabolic Activation: RAT, LIVER, S-9, AROCLOR 1254 (10%), Method: PREINCUBATION): inactive; negative
- mutagenic call [4]: inactive; negative
- mutagenic call (Test System: AMES SALMONELLA TYPHIMURIUM, Strain/Indicator: TA98, Metabolic Activation: RAT, LIVER, S-9, KC 500, Method: PREINCUBATION): inactive; negative
- mutagenic call (Test System: AMES SALMONELLA TYPHIMURIUM, Strain/Indicator: TA100, Metabolic Activation: HAMSTER, LIVER, S-9, AROCLOR 1254 (10%), Method: PREINCUBATION): inactive; negative
- mutagenic call [5]: inactive; negative
- mutagenic call [6]: inactive; negative
- mutagenic call (Test System: AMES SALMONELLA TYPHIMURIUM, Strain/Indicator: TA100, Metabolic Activation: RAT, LIVER, S-9, AROCLOR 1254 (10%), Method: PREINCUBATION): inactive; negative
- mutagenic call [7]: inactive; negative
- mutagenic call (Test System: AMES SALMONELLA TYPHIMURIUM, Strain/Indicator: TA100, Metabolic Activation: RAT, LIVER, S-9, KC 500, Method: PREINCUBATION): inactive; negative
- mutagenic call [8]: inactive; negative
- mutagenic call [9]: inactive; negative
- mutagenic call (Test System: AMES SALMONELLA TYPHIMURIUM, Strain/Indicator: TA1535, Metabolic Activation: HAMSTER, LIVER, S-9, AROCLOR 1254 (10%), Method: PREINCUBATION): inactive; negative
- mutagenic call (Test System: AMES SALMONELLA TYPHIMURIUM, Strain/Indicator: TA1535, Metabolic Activation: NONE, Method: PREINCUBATION): inactive; negative
- mutagenic call (Test System: AMES SALMONELLA TYPHIMURIUM, Strain/Indicator: TA1535, Metabolic Activation: RAT, LIVER, S-9, AROCLOR 1254 (10%), Method: PREINCUBATION): inactive; negative
- mutagenic call (Test System: AMES SALMONELLA TYPHIMURIUM, Strain/Indicator: TA1535, Metabolic Activation: RAT, LIVER, S-9, KC 500, Method: PREINCUBATION): inactive; negative
- mutagenic call (Test System: AMES SALMONELLA TYPHIMURIUM, Strain/Indicator: TA1537, Metabolic Activation: HAMSTER, LIVER, S-9, AROCLOR 1254 (10%), Method: PREINCUBATION): inactive; negative
- mutagenic call (Test System: AMES SALMONELLA TYPHIMURIUM, Strain/Indicator: TA1537, Metabolic Activation: NONE, Method: PREINCUBATION): inactive; negative
- mutagenic call (Test System: AMES SALMONELLA TYPHIMURIUM, Strain/Indicator: TA1537, Metabolic Activation: RAT, LIVER, S-9, AROCLOR 1254 (10%), Method: PREINCUBATION): inactive; negative
- mutagenic call (Test System: AMES SALMONELLA TYPHIMURIUM, Strain/Indicator: TA1537, Metabolic Activation: RAT, LIVER, S-9, KC 500, Method: PREINCUBATION): inactive; negative
- mutagenic call (Test System: AMES SALMONELLA TYPHIMURIUM, Strain/Indicator: TA1538, Metabolic Activation: NONE, Method: PREINCUBATION): inactive; negative
- mutagenic call (Test System: AMES SALMONELLA TYPHIMURIUM, Strain/Indicator: TA1538, Metabolic Activation: RAT, LIVER, S-9, KC 500, Method: PREINCUBATION): inactive; negative
- mutagenic call (Test System: E. COLI, Strain/Indicator: WP2 UVRA, Metabolic Activation: NONE, Method: PREINCUBATION): inactive; negative
- mutagenic call (Test System: E. COLI, Strain/Indicator: WP2 UVRA, Metabolic Activation: RAT, LIVER, S-9, KC 500, Method: PREINCUBATION): inactive; negative

Compound: C=CC(=O)CC
- mutagenic call [5]: active; positive
- mutagenic call (Test System: AMES SALMONELLA TYPHIMURIUM, Strain/Indicator: TA100, Metabolic Activation: RAT, LIVER, S-9, AROCLOR, Method: PREINCUBATION): active; positive

Compound: CCCC[C@@H](C)[C@@H](OC(=O)C[C@@H](CC(=O)O)C(=O)O)[C@H](C[C@@H](C)CCCCCC[C@@H](O)C[C@H](O)[C@H](C)N)OC(=O)C[C@@H](CC(=O)O)C(=O)O
- mutagenic call [1]: inactive; negative
- mutagenic call [2]: inactive; negative
- mutagenic call [3]: inactive; negative
- mutagenic call [4]: inactive; negative
- mutagenic call [6]: inactive; negative
- mutagenic call [7]: inactive; negative
- mutagenic call [8]: inactive; negative
- mutagenic call [9]: inactive; negative

Compound: O=c1cc(-c2ccc(O)cc2)oc2cc(O)c([C@@H]3O[C@H](CO)[C@@H](O)[C@H](O)[C@H]3O)c(O)c12
- mutagenic call (Test System: Ames Salmonella typhimurium, Strain/Indicator: TA98, Metabolic Activation: None, Method: Standard plate): inactive; negative
- mutagenic call (Test System: Ames Salmonella typhimurium, Strain/Indicator: TA98, Metabolic Activation: Rat, Liver, S-9, Aroclor 1254, Method: Standard plate): inactive; negative
